Measured values taken from article PMC10065799, “High-throughput profiling of sequence recognition by tyrosine kinases and SH2 domains using bacterial peptide display” (eLife, 2023).
Each block holds one sequence with its values, some of them ahead of it.

How the values were obtained:
Experiment in all cases: pTyr-Var library bacterial peptide display kinase screen (enrichment scores)
c-Abl kinase domain = biological target: T1, c-Abl kinase domain (Mus musculus, UniProt P00520); format: biochemical;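 note: log2 fold change in enrichment of variant over reference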
T1 sequence (P00520 242-493 limits assumed): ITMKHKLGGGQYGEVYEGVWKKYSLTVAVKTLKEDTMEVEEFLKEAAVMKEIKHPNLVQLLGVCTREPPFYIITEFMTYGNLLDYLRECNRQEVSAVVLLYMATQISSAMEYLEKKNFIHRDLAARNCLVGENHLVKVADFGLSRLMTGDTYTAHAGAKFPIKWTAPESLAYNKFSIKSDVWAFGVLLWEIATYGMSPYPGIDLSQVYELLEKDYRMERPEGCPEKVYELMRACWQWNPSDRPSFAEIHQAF

c-Src kinase domain = c-Src kinase domain (Homo sapiens, UniProt P12931); format: biochemical; details: sheet "Src";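 note: log2 fold change in enrichment of variant over reference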
EPHB1 kinase domain = format: biochemical, human; details: for Screen (variant relative to reference peptide, measured in the pTyr-Var library screen): sheet "EPHB1", variant seq vs reference seq, bacterial peptide display enrichment; for Screen: sheet EPHB1, effect of the variant peptide relative to its reference peptide in the pTyr-Var library screen (enrichment scores)
EPHB2 kinase domain = format: biochemical, human; details: sheet EPHB2; effect of variant peptide relative to its reference peptide in the pTyr-Var library screen (enrichment scores)
Fer kinase domain = format: biochemical, mouse; details: sheet "Fer"
[1] = sheet "Abl", effect of variant peptide relative to its reference peptide in pTyr-Var library screen (enrichment)
[2] = variant peptide versus its reference peptide in the pTyr-Var library screen
[3] = fig5-data2, sheet "Abl", Screen for the variant/reference peptide pair, pTyr-Var library
[4] = value of the variant peptide against its reference peptide in the pTyr-Var library screen with Fer
[5] = effect of the variant peptide relative to its reference peptide in the pTyr-Var library screen
[6] = variant peptide relative to its reference peptide, pTyr-Var library screen enrichment

Sequence: PLSGEYFTLQI [TP53_Y327_D324S]
Screen (c-Abl kinase domain; [1]): -0.7361
Screen (c-Src kinase domain; [2]): -0.1322
Screen (variant relative to reference peptide, measured in the pTyr-Var library screen) (EPHB1 kinase domain): 0.4408

Screen (EPHB1 kinase domain): 0.345
Sequence: KSFDMYSGDVM [FAM3D_Y122_A118S]

Screen (EPHB2 kinase domain): -0.93
Sequence: LVRAFYCERRW [CARD11_Y970_R975W]

Sequence: EFRFIYMAVQH [PTPN11_Y515_Q510E_YF]
Screen (c-Src kinase domain; [2]): 0.0506

Screen (c-Abl kinase domain; [3]): -2.007
Sequence: KGEDFYFVTCH [FHL1_Y149_C150Y_YF]

Sequence: QLQVFYATRDQ [MIPEP_Y579_L582R]
Screen (Fer kinase domain; [4]): -2.265
Screen (c-Src kinase domain; [5]): -2.05
Screen (EPHB2 kinase domain): -1.278

Sequence: FVSLIYTNFEA [GSTP1_Y109_I105V_YF]
Screen (Fer kinase domain; [4]): 0.7121
Screen (c-Src kinase domain; [5]): 0.3433

Sequence: KMKGEYFRFLA [YWHAG_Y130_D129E_YF]
Screen (c-Abl kinase domain; [1]): -2.114
Screen (c-Src kinase domain; [2]): 0.3869

Screen (c-Abl kinase domain; [3]): 0.4405
Sequence: EAGKVYLKAAM [CBFB_Y96_P100A]

Screen (c-Abl kinase domain; [1]): -2.22
Sequence: PGVNFYFQVSA [TTN_Y28166_R28168Q_YF]

Sequence: LFMGDYVGRGF [PPP2CA_Y86_D88G_YF]
Screen (c-Src kinase domain; [2]): 1.98
Screen (EPHB1 kinase domain): 1.681

Screen (c-Abl kinase domain; [3]): -1.416
Sequence: IVTLKYPIEHG [ACTB_Y69_L65V]

Screen (c-Abl kinase domain; [3]): 1.763
Sequence: RVSSVYTRSTG [CCR5_Y339_A335V]

Sequence: KTGDFYDLFGG [PTPN11_Y63_N58K_YF]
Screen (Fer kinase domain; [6]): -1.345
Screen (c-Src kinase domain; [2]): -0.7427

Sequence: RKETFYILSCR [GUCY2C_Y681_T682I]
Screen (c-Src kinase domain; [5]): -2.18

Sequence: PNRILYRDFRQ [MYH7_Y715_G716R]
Screen (c-Src kinase domain; [2]): -3.613

Screen (c-Abl kinase domain; [1]): 1.474
Sequence: FSSLGYPLPEG [ZSWIM4_Y87_P89L_YF]

Screen (c-Abl kinase domain; [3]): -1.292
Sequence: PSSRDYKDNIK [PIGN_Y227_H229D]

Sequence: KAEQLYIGVTV [EFHC2_Y509_E507Q]
Screen (Fer kinase domain; [4]): 0.3011
Screen (c-Src kinase domain; [5]): 0.06421

Sequence: DFFDLYGGQKF [PTPN11_Y66_E69Q_YF]
Screen (c-Src kinase domain; [2]): 1.294

Sequence: PRDGEYFTLQI [TP53_Y327_L323R]
Screen (c-Src kinase domain; [2]): -0.0193

Screen (c-Abl kinase domain; [1]): -1.7
Sequence: LAVNPYGPPDL [TTN_Y22579_P22584L]

Screen (Fer kinase domain; [4]): 1.551
Sequence: LLEGKYEWQEV [CDKN1B_Y74_P69L]

Screen (EPHB2 kinase domain): 1.681
Sequence: PLCPDYQEPSR [DDR2_Y481_R478C]

Sequence: SKLTIYDGRPS [MTM1_Y277_A279G]
Screen (c-Src kinase domain; [5]): -1.75

Screen (c-Abl kinase domain; [3]): 0.1866
Sequence: PIGRKYKKVRF [F8_Y442_R437P]

Sequence: GLTSTYVGIRK [ROBO1_Y932_A933V]
Screen (c-Src kinase domain; [2]): -1.42

Screen (c-Abl kinase domain; [1]): -3.766
Sequence: RGVVMYTSKDR [ZG16B_Y136_M133V]

Sequence: DWWQEYVLNES [TGM1_Y267_R264W]
Screen (c-Src kinase domain; [2]): 1.594

Sequence: SLIDMYSEVLA [OPA1_Y268_D273A]
Screen (c-Src kinase domain; [2]): 1.458

Sequence: EDKFMYLEFPQ [PTEN_Y240_F241L]
Screen (c-Src kinase domain; [2]): -1.097

Screen (c-Abl kinase domain; [1]): 2.11
Sequence: AALRLYHVSDS [VIL1_Y256_K254R]

Screen (c-Abl kinase domain; [3]): -0.5379
Sequence: VKFGAYINDFK [GLB1_Y488_N484K_YF]

Sequence: QDLLLYQTHSE [PKHD1_Y255_F253L]
Screen (Fer kinase domain; [4]): 1.348
Screen (c-Src kinase domain; [2]): 0.9307
Screen (EPHB2 kinase domain): 1.452

Screen (EPHB2 kinase domain): -1.339
Sequence: ADGLEYPRTGL [MMUT_Y287_S288P]

Sequence: LWQSIYNLDAE [TNNT2_Y251_E254D]
Screen (c-Src kinase domain; [2]): 0.02036

Screen (c-Abl kinase domain; [3]): 0.59
Sequence: VVQGLYKSMRK [KBTBD2_Y250_P254R]

Sequence: REETTYLPLTS [ICAM3_Y527_S525T]
Screen (c-Src kinase domain; [5]): -0.5459

Screen (c-Abl kinase domain; [3]): -1.497
Sequence: QHVPDYRQNGF [PCDHGA1_Y890_V894G_YF]

Sequence: QPRDIYHQTWA [GBA_Y244_G241R]
Screen (c-Src kinase domain; [5]): -0.7899

Sequence: GQLIVYAPPEW [CNTN6_Y315_F314V]
Screen (Fer kinase domain; [4]): -1.619
Screen (c-Src kinase domain; [5]): 1.101
Screen (EPHB2 kinase domain): -0.7681

Screen (c-Abl kinase domain; [3]): -0.4541
Sequence: TNFSLYLRSLE [MTM1_Y71_R69S_YF]

Screen (c-Abl kinase domain; [3]): 0.01021
Sequence: QKKPCYEIRWK [PDGFRB_Y562_R561C]

Sequence: LHQSTYQCFDV [SLC7A14_Y693_R695C_YF]
Screen (Fer kinase domain; [6]): 1.307
Screen (c-Src kinase domain; [2]): 0.927
Screen (variant relative to reference peptide, measured in the pTyr-Var library screen) (EPHB1 kinase domain): 1.159

Screen (EPHB1 kinase domain): -1.049
Sequence: HKNNNYEPSLF [BRCA2_Y57_N60S]

Sequence: VQEDIYDEFVV [ALDH2_Y332_E337V]
Screen (Fer kinase domain; [4]): 3.107
Screen (c-Src kinase domain; [5]): 0.8946

Sequence: KGEDFYSVTCH [FHL1_Y149_C150S]
Screen (Fer kinase domain; [4]): 2.793
Screen (c-Src kinase domain; [5]): 2.7

Screen (c-Abl kinase domain; [3]): 0.06962
Sequence: NSAFFYKTAEE [CCT6B_Y250_G247A]

Screen (EPHB2 kinase domain): -2.304
Sequence: FCRHNYGVGES [HLA-DRB1_Y112_V115G_YF]

Screen (Fer kinase domain; [4]): -1.292
Sequence: GDEVEYMSVSF [GCLC_Y53_L55S]

Sequence: FLLRVYSIFSK [SGCE_Y38_T36R]
Screen (c-Src kinase domain; [2]): -1.068
